# Assay results published in US9434711B2 (Janssen Pharmaceutica, NV, priority 2007, dated 2016).
# Read-outs that look alike come from different tables or passages of the source.
# Target: canine TRPM8 (Canis lupus familiaris, UniProt Q1A7N1)
# Assay: In Vitro Canine TRPM8 Functional Assay (Ca2+ fluorescence, icilin activation)
# Assay type: cell-based
# Conditions: for IC50: read-out: IC50
# Method in brief: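 Eight-point dose-response curves in quadruplicate gave EC50 or IC50 values from a Ca2+-sensitive dye assay in HEK293 cells stably carrying canine TRPM8. Icilin, dosed near its 80% maximal level, followed a 5 min compound exposure.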
# [1] = HEK293 cells stably expressing canine TRPM8, icilin activation, eight-point dose-response
# [2] = compound at 0.2 μM, canine TRPM8, icilin activation, read-out: % Inh @ 0.2
# [3] = 0.2 μM compound, HEK293 cells stably expressing canine TRPM8, icilin activation, read-out: % Inh @ 0.2
# [4] = HEK293 cells stably expressing canine TRPM8, icilin activation, average of two or more determinations
# canine TRPM8, sequence (Q1A7N1 1-1104): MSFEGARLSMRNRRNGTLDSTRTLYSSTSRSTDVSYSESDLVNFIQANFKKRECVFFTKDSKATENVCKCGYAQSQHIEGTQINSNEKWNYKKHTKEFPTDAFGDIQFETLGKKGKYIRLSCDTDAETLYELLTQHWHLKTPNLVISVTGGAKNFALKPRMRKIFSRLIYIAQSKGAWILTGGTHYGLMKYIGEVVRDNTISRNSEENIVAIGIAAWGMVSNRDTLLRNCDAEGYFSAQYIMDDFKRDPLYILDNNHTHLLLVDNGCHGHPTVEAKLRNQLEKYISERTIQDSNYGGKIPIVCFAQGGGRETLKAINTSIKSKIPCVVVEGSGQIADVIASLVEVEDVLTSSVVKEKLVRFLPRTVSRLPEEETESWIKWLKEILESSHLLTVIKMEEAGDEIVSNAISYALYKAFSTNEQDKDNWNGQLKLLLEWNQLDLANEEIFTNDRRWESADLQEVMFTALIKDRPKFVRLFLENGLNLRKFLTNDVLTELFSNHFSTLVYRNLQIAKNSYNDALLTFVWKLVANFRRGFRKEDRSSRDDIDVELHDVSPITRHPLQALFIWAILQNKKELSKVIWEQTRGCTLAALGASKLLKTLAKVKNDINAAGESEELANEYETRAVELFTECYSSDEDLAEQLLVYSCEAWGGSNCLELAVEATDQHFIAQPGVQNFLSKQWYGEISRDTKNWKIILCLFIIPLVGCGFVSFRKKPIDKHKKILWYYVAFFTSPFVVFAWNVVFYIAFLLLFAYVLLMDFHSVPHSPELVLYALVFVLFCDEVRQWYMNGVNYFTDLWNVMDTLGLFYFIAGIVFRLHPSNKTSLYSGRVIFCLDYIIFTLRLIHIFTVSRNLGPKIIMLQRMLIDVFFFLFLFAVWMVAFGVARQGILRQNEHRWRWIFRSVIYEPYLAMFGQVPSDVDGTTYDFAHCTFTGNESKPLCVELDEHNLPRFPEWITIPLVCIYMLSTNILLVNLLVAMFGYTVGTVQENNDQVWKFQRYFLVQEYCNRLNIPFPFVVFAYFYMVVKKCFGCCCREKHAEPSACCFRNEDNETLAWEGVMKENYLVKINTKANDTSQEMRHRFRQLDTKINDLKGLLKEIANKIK
Compound,IC50 [1] [nM],inhibition at 0.2 µM [2] [%],inhibition at 0.2 µM [3] [%],IC50 [4] [nM],"inhibition at 0.2 µM (HEK293, read-out: % Inh @ 0.2 (μM)) [%]"
"Cc1c(N(Cc2ccc(F)c(C(F)(F)F)c2)S(=O)(=O)CCO)sc2ccccc12 [Compound 793, N-(4-Fluoro-3-trifluoromethyl-benzyl)-N-(3-methyl-benzo[b]thiophen-2-yl)-2-hydroxy-ethanesulfonamide]",15.5,102,–,–,–
"COC(=O)CCS(=O)(=O)N(Cc1ccc(OC(F)(F)F)cc1)c1sc2ccccc2c1C [Compound 794, N-(3-Methyl-benzo[b]thiophen-2-yl)-N-(4-trifluoromethoxy-benzyl)-2-carbomethoxy-ethanesulfonamide]",29.4,101,–,–,–
"Cc1c(N(Cc2ccc(OC(F)(F)F)cc2)S(=O)(=O)CCC(=O)O)sc2ccccc12 [Compound 795, N-(3-Methyl-benzo[b]thiophen-2-yl)-N-(4-trifluoromethoxy-benzyl)-2-carboxy-ethanesulfonamide]",–,–,100,24.6,–
"Cc1c(N(Cc2ccc(OC(F)(F)F)cc2)S(=O)(=O)CCC(C)(C)O)sc2ccccc12 [Compound 796, N-(3-Methyl-benzo[b]thiophen-2-yl)-N-(4-trifluoromethoxy-benzyl)-3-hydroxy-3-methyl-butane-1-sulfonamide]",–,–,101,24.2,–
"Cc1c(N(Cc2ccc(F)c(C(F)(F)F)c2)S(=O)(=O)CCBr)sc2ccccc12 [Compound 797, N-(4-Fluoro-3-trifluoromethyl-benzyl)-N-(3-methyl-benzo[b]thiophen-2-yl)-2-bromo-ethane-1-sulfonamide]",–,–,–,4.8,102
"Cc1c(N(Cc2ccc(OC(F)(F)F)cc2)S(=O)(=O)c2ccc(N(C)C)cc2)sc2ccccc12 [Compound 799, N-(3-Methyl-benzo[b]thiophen-2-yl)-N-(4-trifluoromethoxy-benzyl)-4-dimethylamino-benzenesulfonamide]",–,–,102,3.9,–
"Cc1c(N(Cc2ccc(OC(F)(F)F)cc2)S(=O)(=O)c2ccc(N3CCOCC3)cc2)sc2ccccc12 [Compound 800, N-(3-Methyl-benzo[b]thiophen-2-yl)-N-(4-trifluoromethoxy-benzyl)-4-morpholino-benzenesulfonamide]",–,–,102,6.8,–
"Cc1c(N(Cc2ccc(OC(F)(F)F)cc2)S(=O)(=O)c2ccc(-c3noc(=O)[nH]3)cc2)sc2ccccc12 [Compound 801, N-(3-Methyl-benzo[b]thiophen-2-yl)-N-(4-trifluoromethoxy-benzyl)-4-(5-oxo-4,5-dihydro-[1,2,4]oxadiazol-3-yl)-benzenesulfonamide]",–,–,102,2.8,–
"CCS(=O)(=O)N(Cc1cc(F)c(F)c(OC)c1F)c1sc2ccccc2c1C(C)(C)O [Compound 802, N-[3-(1-Hydroxy-1-methyl-ethyl)-benzo[b]thiophen-2-yl]-N-(2,4,5-trifluoro-3-methoxy-benzyl)-ethanesulfonamide]",–,–,101,8,–

# The next lines start with results.
IC50 [1] [nM],inhibition at 0.2 µM [2] [%],inhibition at 0.2 µM [3] [%],IC50 [4] [nM],Compound,"inhibition at 0.2 µM (HEK293, read-out: % Inh @ 0.2 (μM)) [%]"
–,–,101,30.8,"C=C(C)c1c(N(Cc2cc(F)c(F)c(OC)c2F)S(=O)(=O)CC)sc2ccccc12 [Compound 803, N-(3-Isopropenyl-benzo[b]thiophen-2-yl)-N-(2,4,5-trifluoro-3-methoxy-benzyl)-ethanesulfonamide]",–
–,–,–,11.1,"Cc1c(N(CCC2CC2)S(=O)(=O)c2cnccc2-c2nnn[nH]2)sc2ccccc12 [Compound 804, N-(3-Methyl-benzo[b]thiophen-2-yl)-N-(cyclopropyl-ethyl)-4-(1H-tetrazol-5-yl)-pyridin-3-ylsulfonamide]",–
–,–,102,–,Cc1c(N(CCC2CC2)S(=O)(=O)c2ccc(-c3nnn[nH]3)nc2)sc2ccccc12 [Compound 804],–
–,–,103,2.2,Cc1c(N(Cc2ccc(OC(F)(F)F)cc2)S(=O)(=O)c2ccc(-c3nnn[nH]3)nc2)sc2ccccc12 [Compound 805],–
